Structures are written as SMILES.

The target of this test is T1, Short transient receptor potential channel 5 (Homo sapiens, UniProt Q9UL62).
T1 sequence (Q9UL62 whole entry): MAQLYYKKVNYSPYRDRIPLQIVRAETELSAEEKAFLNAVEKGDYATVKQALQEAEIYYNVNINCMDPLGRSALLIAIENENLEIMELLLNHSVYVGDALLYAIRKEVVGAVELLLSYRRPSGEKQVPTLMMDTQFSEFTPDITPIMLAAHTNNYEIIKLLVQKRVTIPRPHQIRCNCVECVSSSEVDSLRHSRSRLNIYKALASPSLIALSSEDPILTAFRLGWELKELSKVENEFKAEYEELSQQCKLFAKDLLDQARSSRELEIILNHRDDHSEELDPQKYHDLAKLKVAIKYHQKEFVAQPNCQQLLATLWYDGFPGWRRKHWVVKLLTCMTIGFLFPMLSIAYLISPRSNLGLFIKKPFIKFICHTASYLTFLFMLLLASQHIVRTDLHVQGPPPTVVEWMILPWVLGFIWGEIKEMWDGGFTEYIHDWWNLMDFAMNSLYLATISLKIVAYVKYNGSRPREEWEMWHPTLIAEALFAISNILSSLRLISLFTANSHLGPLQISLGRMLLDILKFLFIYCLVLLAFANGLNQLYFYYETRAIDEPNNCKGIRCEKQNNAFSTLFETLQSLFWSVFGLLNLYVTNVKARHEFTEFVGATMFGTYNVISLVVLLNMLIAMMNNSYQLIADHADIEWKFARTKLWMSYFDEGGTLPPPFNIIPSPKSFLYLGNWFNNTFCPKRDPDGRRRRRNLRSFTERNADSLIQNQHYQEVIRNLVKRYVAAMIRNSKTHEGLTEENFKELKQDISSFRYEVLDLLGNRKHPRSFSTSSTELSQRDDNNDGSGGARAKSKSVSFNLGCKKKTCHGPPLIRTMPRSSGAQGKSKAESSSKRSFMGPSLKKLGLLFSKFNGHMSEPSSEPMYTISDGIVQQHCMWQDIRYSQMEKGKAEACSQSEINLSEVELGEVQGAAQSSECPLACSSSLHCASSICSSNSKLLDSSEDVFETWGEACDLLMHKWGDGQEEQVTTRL
In words: High Throughput Screening Assay: The commercially available HEK293/TREx line (Invitrogen) was stably transfected with a TRPC5 construct and screened by conventional calcium imaging to find clones with TRPC5 expression following stimulation with 1 μg/ml tetracycline. These cells were maintained in the growth medium recommended by the manufacturer supplemented with 100 μg/ml hygromycin to promote retention of the TRPC5 construct. After growing to near confluency, cells were plated at a density of Ë¿35,000 cells/well in 384 well CellBind plates (Corning) in the presence of 1 μg/ml tetracycline, and allowed to grow for 20-30 hrs. A nearly confluent monolayer resulted. Cells were then loaded with Ca2+ dye: Fura-2/AM or Fluo4/AM was added to the wells to a final concentration of 4 μM or 0.5 μM, respectively, and incubated for 80 min or 60 min, respectively, at room temperature. Supernatant was then removed from the cells by inverting plates with a sharp flick, and 25 μl Hank's Balanced Salt Solution (HBSS; 0.185 g/l D-glucose, 0.9767 g/l MgS04 (anhydrous), 0.4 g/l KCl, 0.06 g/l KH2PO4 (anhydrous), 0.35 g/l NaHCO3, 8.0 g/l NaCl, and 0.04788 g/l Na2HPO4 (anhydrous); pH 7.4) was then added to each well. […].

What is called IC50 is the point on the concentration scale where inhibition reaches its midpoint. In the case of `Cn1c(=O)n(CCCO)c(=O)c2c(C(O)c3ccc(Cl)cc3)c(Oc3cccc(OC(F)(F)F)c3)sc21` (configuration not stated), the IC50 amounted to 194 nM.
For `Cc1c(-c2cccc(Cl)c2Cl)sc2c1c(=O)n(CCCO)c(=O)n2C` the value was 31.6 nM.

(Values after ChEMBL document CHEMBL3886925, “Thieno- and furo[2,3-d]pyrimidine-2,4[1H,3H]-dione derivatives” (2016).)
